Data on 25 compounds can be found in patent US9216981B2, “Purinylpyridinylamino-2,4-difluorophenyl sulfonamide derivative, pharmaceutically acceptable salt thereof, preparation method thereof, and pharmaceutical composition with inhibitory activity against Raf kinase, containing same as active ingredient” (Medpacto, Inc., priority 2010, dated 2015).

Assay [1] deals with B-Raf (Homo sapiens (Human), UniProt P15056). The assay can be described thus: B-Raf kinase activity (B-Raf/MEK1/MAPK2 cascade, MBP phosphorylation, [γ-32P]ATP). In kind it is biochemical. Conditions: activated B-Raf, inactivated MEK1, inactivated MAPK2, 30° C., 30 minutes, read-out: B-Raf Enzyme Activity. Here is the method:
To check the B-Raf kinase inhibitory activity of the compounds of the present invention, the following experiments were conducted.
20 μl of diluting solvent (20 mM MOPS, pH 7.2, 25 mM β-glycerol phosphate, 5 mM EGTA, 1 mM sodium orthovanadate, 1 mM dithiothreitol) and 10 μl of Mg/ATP mixed solution (500 μM ATP, 75 mM magnesium chloride) were added into a centrifuge tube, the derivative compound of Formula 1 was added or the compounds of the Examples were not added as a control group, and then 1 ng of activated B-Raf, 0.4 ng of inactivated MEK1, and 1 μg of inactivated MAPK2 were added. The solutions in the tube were collected on the bottom via centrifugation and were reacted at 30° C. for 30 minutes. After taking 4 μl of the mixed solution, the test proceeded to the next step.
(2) Phosphorylation of Matrix Protein MBP by MAPK2
10 μl of diluting solvent, 20 μg of MBP used as a matrix, and 10 μl of diluted [γ-32P]ATP (1 μCi/μL) were added into the 4 μl of the mixed solution obtained from (1). The solutions in the tube were collected on the bottom via centrifugation and were reacted at 30° C. for 30 minutes. And 25 μl of the reacted solution was put carefully on the center of a filter paper (2 cm×2 cm P81) for 30 seconds. Afterwards, the filter paper was cleaned with 0.75% phosphoric acid for 10 minutes three times and with acetone for 5 minutes one time. The filter paper was then moved to a scintillation vial and 5 ml of scintillation cocktail was added thereto. The inhibition rate (IC50) over B-Raf activity was measured by reading radioactivity through a scintillation counter while comparing to the control group.

The subject of assay [2] is A375P cell line. The assay can be described thus: B-Raf cell activity inhibition (A375P growth inhibition, MTT assay). The settings on record: A375P human melanoma, V600E mutant of B-Raf, 72 hours. In kind it is cell-based. On the procedure:
To check the B-Raf cell activity inhibitory capability of the compounds of the present invention, the following experiments were conducted in A375P cell line (ATCC). […] A375 cell was maintained in DMEM supplemented with 10% fetal bovine serum, glutamine (2 mM), penicillin (100 U/mL), and streptomycin (100 μg/mL). The cell was maintained at 37° C., and in 5% CO2 and 100% humidity. To conduct the growth inhibition test, the cell was plated by using a white 384-well microplate, with 1000 cells/20 μl plated per 1 well. After 24 hours, 5 μl of 5× stock solution of drug was added. All the drugs were initially prepared with 200× stock solution in DMSO, and the final concentration of DMSO was 0.5%. The cell was incubated at 37° C. for 72 hours. For MTT assay, ‘CellTiter 96 (R) Non-Radioactive Cell Proliferation Assay (G4100)’ kit by Promega Corp. was used. 15 μl of dye solution of the Promega kit was put into each well and was cultured in the incubator for 4 hours. And 100 μl of each Solubilization/Stop Solution substance of the kit was added and fixed in the incubator for 24 hours again. And then, absorbance was measured by using a 96-well plate reader with 570 nm of absorbance.

B-Raf, sequence (P15056 whole entry): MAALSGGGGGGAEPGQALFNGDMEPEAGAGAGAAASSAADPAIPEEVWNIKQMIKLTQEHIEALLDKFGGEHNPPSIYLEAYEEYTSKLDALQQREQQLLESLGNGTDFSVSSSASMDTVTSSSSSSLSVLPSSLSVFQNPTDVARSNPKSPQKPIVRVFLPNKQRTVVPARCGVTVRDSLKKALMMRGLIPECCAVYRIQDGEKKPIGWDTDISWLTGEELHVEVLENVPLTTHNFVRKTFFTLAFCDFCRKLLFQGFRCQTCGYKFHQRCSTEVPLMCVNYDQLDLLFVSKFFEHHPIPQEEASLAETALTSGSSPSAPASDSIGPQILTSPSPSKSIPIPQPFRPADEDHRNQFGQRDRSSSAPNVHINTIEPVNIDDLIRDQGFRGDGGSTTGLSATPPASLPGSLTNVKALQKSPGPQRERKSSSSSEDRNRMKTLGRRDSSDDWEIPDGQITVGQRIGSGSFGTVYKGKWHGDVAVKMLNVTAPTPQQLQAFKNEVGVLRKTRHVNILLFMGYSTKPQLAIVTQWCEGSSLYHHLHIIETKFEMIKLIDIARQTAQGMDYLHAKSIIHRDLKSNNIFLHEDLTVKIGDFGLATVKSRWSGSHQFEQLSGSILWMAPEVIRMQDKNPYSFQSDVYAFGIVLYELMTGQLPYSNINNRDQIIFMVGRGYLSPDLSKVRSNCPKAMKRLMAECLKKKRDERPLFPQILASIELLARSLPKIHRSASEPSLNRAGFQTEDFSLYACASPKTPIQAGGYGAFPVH

As for `O=S(=O)(Nc1ccc(F)c(Nc2ncccc2-c2ncnc3[nH]cnc23)c1F)c1ccoc1` [Example 18, N-(3-(3-(9H-purin-6-yl)pyridin-2-ylamino)-2,4-difluorophenyl)furan-3-sulfonamide], the IC50 in assay [1] was found to be 1 nM; in assay [2] it was 2 nM. Consider `O=S(=O)(Nc1ccc(F)c(Nc2ncccc2-c2ncnc3[nH]cnc23)c1F)c1ccc(C(F)(F)F)cc1` [Example 3, N-(3-(3-(9H-purin-6-yl)pyridin-2-ylamino)-2,4-difluorophenyl)-4-(trifluoromethyl)benzenesulfonamide], for which the figures for the IC50 in assay [1] and in assay [2] were 30 nM and 5200 nM, respectively. As to `O=S(=O)(Nc1ccc(F)c(Nc2ncccc2-c2ncnc3[nH]cnc23)c1F)c1cccc(Cl)c1` [Example 33, N-(3-(3-(9H-purin-6-yl)pyridin-2-ylamino)-2,4-difluorophenyl)-3-chloro benzenesulfonamide], the IC50 in assay [1] is 80 nM; in assay [2], 770 nM. The like results for `Cn1cnc(S(=O)(=O)Nc2ccc(F)c(Nc3ncccc3-c3ncnc4[nH]cnc34)c2F)c1` [Example 22, N-(3-(3-(9H-purin-6-yl)pyridin-2-ylamino)-2,4-difluorophenyl)-1-methyl-1-imidazole-4-sulfonamide] were, in that order, 1800 nM and 1000 nM. `O=[N+]([O-])c1ccccc1CS(=O)(=O)Nc1ccc(F)c(Nc2ncccc2-c2ncnc3[nH]cnc23)c1F` [Example 9, N-(3-(3-(9H-purin-6-yl)pyridin-2-ylamino)-2,4-difluorophenyl)-1-(2-nitrophenyl)methansulfonamide]: the IC50 in assay [1] stood at 1500 nM. In the case of `O=S(=O)(Nc1ccc(F)c(Nc2ncccc2-c2ncnc3[nH]cnc23)c1F)c1cccnc1` [Example 30, N-(3-(3-(9H-purin-6-yl)pyridin-2-ylamino)-2,4-difluorophenyl)pyridin-3-sulfonamide], the IC50 amounted to 4 nM in assay [1] and 70 nM in assay [2]. Turning to `O=S(=O)(Nc1ccc(F)c(Nc2ncccc2-c2ncnc3[nH]cnc23)c1F)c1ccc(F)cc1C(F)(F)F` [Example 13, N-(3-(3-(9H-purin-6-yl)pyridin-2-ylamino)-2,4-difluorophenyl)-4-fluoro-2-(trifluoromethyl)benzenesulfonamide], the figures for the IC50 in assay [1] and in assay [2] were 420 nM and 150 nM, respectively. Consider `Cc1ccc(S(=O)(=O)Nc2ccc(F)c(Nc3ncccc3-c3ncnc4[nH]cnc34)c2F)o1` [Example 23, N-(3-(3-(9H-purin-6-yl)pyridin-2-ylamino)-2,4-difluorophenyl)-5-methylfuran-2-sulfonamide], for which the figures for the IC50 in assay [1] and in assay [2] were 15 nM and 60 nM, respectively. Consider `O=S(=O)(Nc1ccc(F)c(Nc2ncccc2-c2ncnc3[nH]cnc23)c1F)C1CCCCC1` [Example 11, N-(3-(3-(9H-purin-6-yl)pyridin-2-ylamino)-2,4-difluorophenyl)cyclohexanesulfonamide], for which the IC50 in assay [1] is 206 nM; in assay [2], 340 nM. `O=S(=O)(Nc1ccc(F)c(Nc2ncccc2-c2ncnc3[nH]cnc23)c1F)c1ccc(Cl)s1` [Example 44] came in with an IC50 in assay [2] of 200 nM.

Regarding `O=S(=O)(Nc1ccc(F)c(Nc2ncccc2-c2ncnc3[nH]cnc23)c1F)c1ccsc1` [Example 17, N-(3-(3-(9H-purin-6-yl)pyridin-2-ylamino)-2,4-difluorophenyl)thiophene-3-sulfonamide], the IC50 in assay [1] came out at 7 nM; in assay [2], 40 nM. Regarding `O=S(=O)(Nc1ccc(F)c(Nc2ncccc2-c2ncnc3[nH]cnc23)c1F)N1CCOCC1` [Example 21, N-(3-(3-(9H-purin-6-yl)pyridin-2-ylamino)-2,4-difluorophenyl)morpholine-4-sulfonamide], the IC50 in assay [1] worked out at 1300 nM; in assay [2], 360 nM. In the case of `O=S(=O)(Nc1ccc(F)c(Nc2ncccc2-c2ncnc3[nH]cnc23)c1F)c1cccc2c1OCCC2` [Example 38, N-(3-(3-(9H-purin-6-yl)pyridin-2-ylamino)-2,4-difluorophenyl)chromane-8-sulfonamide], the results for the IC50 in assay [1] and in assay [2] were 900 nM and 7190 nM, respectively. The like results for `Cc1cc(S(=O)(=O)Nc2ccc(F)c(Nc3ncccc3-c3ncnc4[nH]cnc34)c2F)c(C)o1` [Example 25, N-(3-(3-(9H-purin-6-yl)pyridin-2-ylamino)-2,4-difluorophenyl)-2,5-dimethylfuran-3-sulfonamide] were, in that order, 15 nM and 100 nM.

Take `COc1ccc(S(=O)(=O)Nc2ccc(F)c(Nc3ncccc3-c3ncnc4[nH]cnc34)c2F)cc1OC` [Example 10, N-(3-(3-(9H-purin-6-yl)pyridin-2-ylamino)-2,4-difluorophenyl)-3,4-dimethoxybenzenesulfonamide]: the IC50 in assay [1] worked out at 1200 nM; in assay [2] it was 10200 nM. The like results for `O=S(=O)(Nc1ccc(F)c(Nc2ncccc2-c2ncnc3[nH]cnc23)c1F)c1ccc(OC(F)(F)F)cc1` [Example 12, N-(3-(3-(9H-purin-6-yl)pyridin-2-ylamino)-2,4-difluorophenyl)-4-(trifluoromethoxy)benzenesulfonamide] were, in that order, 610 nM and 600 nM.

Turning to `O=S(=O)(Nc1ccc(F)c(Nc2ncccc2-c2ncnc3[nH]cnc23)c1F)c1ccc(Cl)c(Cl)c1` [Example 6, N-(3-(3-(9H-purin-6-yl)pyridin-2-ylamino)-2,4-difluorophenyl)-3,4-dichlorobenzenesulfonamide], the IC50 stood at 720 nM in assay [1] and 2800 nM in assay [2]. As to `Cn1cc(S(=O)(=O)Nc2ccc(F)c(Nc3ncccc3-c3ncnc4[nH]cnc34)c2F)cn1` [Example 43, N-(3-(3-(9H-purin-6-yl)pyridin-2-ylamino)-2,4-difluorophenyl)-1-methyl-1H-pyrazole-4-sulfonamide], the IC50 amounted to 120 nM in assay [1] and 1370 nM in assay [2]. With `Cn1ccc2cc(S(=O)(=O)Nc3ccc(F)c(Nc4ncccc4-c4ncnc5[nH]cnc45)c3F)ccc21` [Example 40, N-(3-(3-(9H-purin-6-yl)pyridin-2-ylamino)-2,4-difluorophenyl)-1-methyl-1H-indole-5-sulfonamide], the IC50 in assay [1] was > 10000 nM; in assay [2] it was > 15000 nM. In the case of `Cc1nc(C)c(S(=O)(=O)Nc2ccc(F)c(Nc3ncccc3-c3ncnc4[nH]cnc34)c2F)s1` [Example 20, N-(3-(3-(9H-purin-6-yl)pyridin-2-ylamino)-2,4-difluorophenyl)-2,4-dimethylthiazole-5-sulfonamide], the IC50 in assay [1] was found to be 160 nM; in assay [2], 700 nM. For `O=S(=O)(Nc1ccc(F)c(Nc2ncccc2-c2ncnc3[nH]cnc23)c1F)c1cccc(Cl)c1Cl` [Example 34, N-(3-(3-(9H-purin-6-yl)pyridin-2-ylamino)-2,4-difluorophenyl)-2,3-chlorobenzenesulfonamide], the IC50 in assay [1] was 40 nM; in assay [2] it was 500 nM.

Take `Cc1cc(S(=O)(=O)Nc2ccc(F)c(Nc3ncccc3-c3ncnc4[nH]cnc34)c2F)c(C(F)(F)F)o1` [Example 26, N-(3-(3-(9H-purin-6-yl)pyridin-2-ylamino)-2,4-difluorophenyl)-5-methyl-2-(trifluoromethyl)furan-3-sulfonamide]: the IC50 in assay [1] was found to be 30 nM; in assay [2] it was 330 nM. In the case of `O=S(=O)(Nc1ccc(F)c(Nc2ncccc2-c2ncnc3[nH]cnc23)c1F)c1cccs1` [Example 4, N-(3-(3-(9H-purin-6-yl)pyridin-2-ylamino)-2,4-difluorophenyl)thiophene-2-sulfonamide], the IC50 in assay [1] was 12 nM; in assay [2], 30 nM. The like results for `O=S(=O)(Nc1ccc(F)c(Nc2ncccc2-c2ncnc3[nH]cnc23)c1F)c1ccccc1Cl` [Example 32, N-(3-(3-(9H-purin-6-yl)pyridin-2-ylamino)-2,4-difluorophenyl)-2-chloro benzenesulfonamide] were, in that order, 30 nM and 440 nM. Consider `O=S(=O)(Nc1ccc(F)c(Nc2ncccc2-c2ncnc3[nH]cnc23)c1F)C1CC1` [Example 19, N-(3-(3-(9H-purin-6-yl)pyridin-2-ylamino)-2,4-difluorophenyl)cyclopropansulfonamide], for which the IC50 in assay [1] is 50 nM; in assay [2] it was 250 nM.
